Reference: patent publication US20020187938A1, “Ghrelin antagonists” (priority 2000, published 2002)
≈ marks a conversion by molar mass, not a printed value. Where “and” joins values, the source holds several entries; their conditions need not be identical. Equal values may be shown once. Where a SMILES comes first, the peptide text is derived from it. Where no end group is shown, it is not given here. The star is where a group is joined. Octanoyl = CCCCCCCC(=O)*

What was measured:
Solubility in water = type: physicochemical; details: for solubility: water
Procedure: Solubility in water: 0.7 mg/ml

circulating GH = assay: Circulating GH in 10-day old rats after subcutaneous injection; type: in vivo; details: 300 mg/kg, circulating GH at 15 minutes
Procedure: The peptide was injected subcutaneously in 10-day old rats at a dose of 300 mg/kg along with a solvent control and Ghrelin, and the circulating GH determined at 15 minutes, as described in R. Deghenghi et al., Life Sciences 54, 1321-1328 (1994). The results were as follows: The peptide was administered to rats as described above in Example 1. […]

Compound	Solubility in water (Solubility in water)	solubility (Solubility in water) [µg/mL]	GH (circulating GH)
CCCCCCCC(=O)OC[C@H](NC(=O)[C@H](CO)NC(=O)CN)C(=O)N[C@@H](Cc1ccccc1)C(=O)O [Peptide of Example 3, Gly-Ser-Ser(Octanoyl)-Phe] (H-GSS(Octanoyl)F-OH; N-terminus and C-terminus assumed)	insoluble	–	–
CCCCCCCC(=O)OC[C@H](NC(=O)[C@H](CO)NC(=O)CN)C(=O)N[C@@H](Cc1ccccc1)C(=O)N[C@@H](CC(C)C)C(=O)N[C@@H](CO)C(=O)N1CCC[C@H]1C(=O)N[C@@H](CCC(=O)O)C(=O)N[C@@H](C)C(=O)N[C@@H](CCCCN)C(=O)N[C@@H](CC(C)C)C(=O)N[C@@H](CCC(N)=O)C(=O)N1CCC[C@H]1C(=O)N[C@@H](CCCNC(=N)N)C(=O)O [Peptide of Example 2, Gly-Ser-Ser(Octanoyl)-Phe-Leu-Ser-Pro-Glu-Ala-Lys-Leu-Gln-Pro-Arg] (H-GSS(Octanoyl)FLSPEAKLQPR-OH)	–	900 (≈ 548 µM)	7.00 ± 3.5 ng/mL
Ghrelin (human): peptide of 27 or 28 amino acids with an octanoyl ester on a serine residue; potent releaser of growth hormone (GSS(Octanoyl)FLSPEHQRVQQRKESKKPPAKLQPR; also: octanoyl ester on a serine residue; UniProt Q9UBU3 24-51, looked up)	–	–	139.80 ± 15.37 ng/mL and 140 ± 15 ng/mL and 139.8 ± 15.4 ng/mL
CCCCCCCC(=O)OC[C@H](NC(=O)[C@H](CO)NC(=O)CN)C(=O)N[C@@H](Cc1ccccc1)C(=O)N[C@@H](CC(C)C)C(=O)N[C@@H](CO)C(=O)N1CCC[C@H]1C(=O)N[C@@H](CCC(=O)O)C(=O)O [Peptide of Example 1, Gly-Ser-Ser(Octanoyl)-Phe-Leu-Ser-Pro-Glu]	–	700 (≈ 738 µM)	–
